Measurements: patent US5691373A, “Nonpeptide endothelin antagonists I” (Warner-Lambert Company, priority 1995, dated 1997)

How the values were obtained:
[1] = target: T1, ETA (Oryctolagus cuniculus, UniProt A5A8K3); test: VERA-A: antagonism of ET-1 stimulated vasoconstriction in the rabbit femoral artery (ETA); format: cell-based; details: ET-1, rabbit femoral artery; read-out: VERA-A pA2 (converted)
T1 sequence (A5A8K3 21-427): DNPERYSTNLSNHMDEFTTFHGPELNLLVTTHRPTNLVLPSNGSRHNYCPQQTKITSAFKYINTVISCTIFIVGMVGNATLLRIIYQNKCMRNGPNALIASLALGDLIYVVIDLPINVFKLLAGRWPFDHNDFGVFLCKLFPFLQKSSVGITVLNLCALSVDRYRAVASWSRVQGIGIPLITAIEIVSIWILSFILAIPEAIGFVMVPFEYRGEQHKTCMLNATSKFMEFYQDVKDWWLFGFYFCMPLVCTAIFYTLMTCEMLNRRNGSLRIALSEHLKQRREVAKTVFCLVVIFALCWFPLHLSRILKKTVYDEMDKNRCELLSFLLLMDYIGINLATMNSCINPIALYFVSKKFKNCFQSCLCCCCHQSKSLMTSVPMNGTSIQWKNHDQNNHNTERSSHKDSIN
Procedure: Male New Zealand rabbits were killed by cervical dislocation and exsanguination. Femoral and pulmonary arteries were isolated, cleaned of connective tissue, and cut into 4-mm rings. The endothelium was denuded by placing the rings over hypodermic tubing (32 gauge for femoral rings and 28 gauge for pulmonary rings, Small Parts, Inc, Miami, Fla.) and gently rolling them. […] Resting tension was adjusted to 3.0 g for femoral and 4.0 g pulmonary arteries; the rings were left for 90 minutes to equilibrate.

[2] = target: T2, human ETB receptor (Homo sapiens, UniProt P24530); test: ERBA-B: [125I]-ET-1 binding, recombinant human ETB receptor expressed in CHO-K1 cells; details: human cloned ETB receptor, read-out: ERBA-B IC50, human cloned receptor data
T2 construct: expressed in transfected cells; host or cells: CHO-K1 cells, pRc-CMW (so in the source) expression vector, electroporation; membranes used
T2 sequence (P24530 27-442): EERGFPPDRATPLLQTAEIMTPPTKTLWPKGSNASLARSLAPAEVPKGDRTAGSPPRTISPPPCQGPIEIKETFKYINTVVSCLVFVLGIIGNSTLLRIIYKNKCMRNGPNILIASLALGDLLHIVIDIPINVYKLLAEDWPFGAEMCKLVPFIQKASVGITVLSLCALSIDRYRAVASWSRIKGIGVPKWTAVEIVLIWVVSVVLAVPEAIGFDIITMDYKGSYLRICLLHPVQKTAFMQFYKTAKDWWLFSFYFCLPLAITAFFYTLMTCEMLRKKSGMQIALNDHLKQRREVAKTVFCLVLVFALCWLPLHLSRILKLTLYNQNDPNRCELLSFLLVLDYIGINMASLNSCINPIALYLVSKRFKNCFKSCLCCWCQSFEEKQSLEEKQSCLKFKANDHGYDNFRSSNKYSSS

[3] = target: T1, ETA; details: ERBA-A IC50, [125I]-ET-1, rabbit renal artery vascular smooth muscle cells
[4] = target: T3, ETB (Rattus norvegicus, UniProt P21451)
T3 sequence (P21451 27-442): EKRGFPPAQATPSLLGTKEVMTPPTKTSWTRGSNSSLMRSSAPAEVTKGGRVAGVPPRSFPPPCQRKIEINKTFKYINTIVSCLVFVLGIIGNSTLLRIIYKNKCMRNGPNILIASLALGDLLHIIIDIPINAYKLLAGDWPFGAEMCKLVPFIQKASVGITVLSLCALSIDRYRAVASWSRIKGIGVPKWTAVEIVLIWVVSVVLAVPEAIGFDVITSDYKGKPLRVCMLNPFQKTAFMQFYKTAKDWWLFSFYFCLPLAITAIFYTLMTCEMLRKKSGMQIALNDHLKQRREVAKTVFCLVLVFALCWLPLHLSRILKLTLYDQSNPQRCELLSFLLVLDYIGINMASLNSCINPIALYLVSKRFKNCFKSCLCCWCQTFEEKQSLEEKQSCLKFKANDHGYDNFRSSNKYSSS

Row | Compound | Kb [1] [nM] | IC50 [2] [nM] | IC50 [3] [nM] | IC50 [4] [nM]
1 | COc1ccc(C(=O)/C(Cc2ccccc2OC)=C(\C(=O)O)c2ccc3c(c2)OCO3)cc1 | 251 | – | – | –
2 | COc1ccc(C2(O)OC(=O)C(c3ccc4c(c3)OCO4)=C2Cc2ccc(NC(C)=O)cc2)cc1 (stereo not shown) [Example 80, N-{4-[4-Benzo[1,3]dioxol-5-yl-2-hydroxy-2-(4-methoxyphenyl)-5-oxo-2,5-dihydro-furan-3-ylmethyl]-phenyl}-acetamide] | 63.1 | 880 | 1.4 | –
3 | COc1ccc(C2(O)OC(=O)C(c3ccc4c(c3)OCO4)=C2Cc2ccc(OC(C)C)cc2)cc1 (stereo not shown) [Example 84, 3-Benzo[1,3]dioxol-5-yl-5-hydroxy-4-(isopropoxybenzyl)-5-(4-methoxyphenyl)-5H-furan-2-one] | 158 | 1400 | 3.3 | –
4 | COc1ccc(C2(O)OC(=O)C(c3ccc4c(c3)OCO4)=C2Cc2ccc(OC)c(Cl)c2)cc1 (stereo not shown) [Example 92, 3-Benzo[1,3]dioxol-5-yl-4-(3-chloro-4-methoxybenzyl)-5-hydroxy-5-(4-methoxyphenyl)-5H-furan-2-one] | 251 | 1400 | 4 | –
5 | CCCCOc1ccc(CC2=C(c3ccc4c(c3)OCO4)C(=O)OC2(O)c2ccc(OC)cc2)cc1 (stereo not shown) [Example 93, 3-Benzo[1,3]dioxol-5-yl-4-(4-butoxybenzyl)-5-hydroxy-5-(4-methoxyphenyl)-5H -furan-2-one] | 1000 | 220 | 5.2 | –
6 | COc1ccc(CC2=C(c3cc(OC)cc(OC)c3)C(=O)OC2(O)c2ccc(OC)cc2)cc1 (stereo not shown) [Example 131, 3-(3,5-Dimethoxyphenyl)-5-hydroxy-4-(4-methoxybenzyl)-5-(4-methoxyphenyl)-5H-furan-2-one] | 501 | 1350 | 15 | –
7 | C=CCOc1cc(CC2=C(c3ccc4c(c3)OCO4)C(=O)OC2(O)c2ccc(OC)cc2)ccc1OC (stereo not shown) [Example 163, 4-(3-Allyloxy-4-methoxybenzyl)-3-benzo[1,3]dioxol-5-yl-5-hydroxy-5-(4-methoxyphenyl)-5H-furan-2-one] | 126 | 880 | 20 | –
8 | COc1ccc(C2(O)OC(=O)C(c3ccc4c(c3)OCO4)=C2Cc2ccc(SC)cc2)cc1 (stereo not shown) [Example 236, 3-Benzo[1,3]dioxol-5-yl-5-hydroxy-5-(4-methoxyphenyl)-4-(4-methylsulfanylbenzyl)-5H-furan-2-one] | 316 | – | 230 | –
9 | COc1ccc(C2(O)OC(=O)C(c3ccc4c(c3)OCO4)=C2Cc2ccc(S(C)(=O)=O)cc2)cc1 (stereo not shown) [Example 237, 3-Benzo[1,3]dioxol-5-yl-5-hydroxy-4-(4-methanesulfonylbenzyl)-5-(4-methoxyphenyl)-5H-furan-2-one] | 631 | > 2500 | 11 | –
10 | COc1ccc(C2(O)OC(=O)C(c3ccc4c(c3)OCO4)=C2Cc2ccccc2)c(OC)c1 (stereo not shown) [Example 241, 3-Benzo[1,3]dioxol-5-yl-4-benzyl-5-(2,4-dimethoxyphenyl)-5-hydroxy-5H-furan-2-one] | 631 | – | 35 | –
11 | COc1ccc(C2(O)OC(=O)C(c3ccc4c(c3)OCO4)=C2Cc2ccc(OC)c(C)c2C)cc1 (stereo not shown) [Example 254, 3-Benzo[1,3]dioxol-5-yl-5-hydroxy-4-(4-methoxy-2,3-dimethylbenzyl)-5-(4-methoxyphenyl)-5H-furan-2-one] | 200 | 2900 | 17 | –
12 | COc1ccc(C2(O)OC(=O)C(c3cc(OC)c4c(c3)OCO4)=C2Cc2ccccc2)cc1 (stereo not shown) [Example 301, 4-Benzyl-5-hydroxy-3-(7-methoxy-benzo[1,3]dioxol-5-yl)-5(4-methoxy-phenyl)-5H-furan-2-one] | 100 | 660 | 5.6 | –
13 | C=CCOc1cc(OC)ccc1C1(O)OC(=O)C(c2ccc3c(c2)OCO3)=C1Cc1ccccc1 (stereo not shown) [Example 329, 3-Benzo[1,3]dioxol-5-yl-5-hydroxy-5-(2-allyloxy-4-methoxy-phenyl)-4-benzyl-5H-furan-2one] | – | – | 110 | 110
